Measurements from US9034825B2, “Treatment of myocardial injury with humanin analogs” (Albert Einstein College of Medicine of Yeshiva University, priority 2007, dated 2015).
Blank lines part the entries; values can stand above or below the substance they belong to. Where no end group is shown, it is not given here.

Tests used:
Sprague-Dawley rats [1] = assay: ICV infusion of IGF-1, IGFBP-3 or NLS mutant with basal and hyperinsulinemic clamp; type: in vivo, rat; conditions: for Glycogen synthesis, Basal / Glycolysis, Basal / HGP, Basal: basal period; for GIR, Clamp: hyperinsulinemic clamp 3 mU/kg/min; for FFA: last 60 min; for whole body glucose disposal / peripheral glucose uptake (Rd) compared to controls: final 60 min; for infused human peptide in the rat periphery: after ICV infusion
Text: Young (3 mo old, n=6 in each group), male Sprague-Dawley rats (Charles River Laboratories, Wilmington, Mass.) were used for this study. Rats were housed in individual cages and were subjected to a standard light (6:00 AM to 6:00 PM)—dark (6:00 PM to 6:00 AM) cycle. All rats were fed ad libitum using regular rat chow that consisted of 64% carbohydrate, 30% protein, and 6% fat with a physiological fuel value of 3.3-kcal/g chow. In the rats that received ICV infusions, 2 to 4 weeks before the in vivo study, the rats were anesthetized by inhalation of isoflurane and a cannula was placed ICV in the third ventricle for infusions of IGF-1, IGFBP-3 or IGFBP-3 mutant or artificial cerebrospinal fluid (aCSF), as previously described (Muzumdar et al., 2003) (FIG. 1). Briefly, a 26-gauge stainless steel guide cannula (Plastics One, Roanoke, Va.) was chronically implanted into the third ventricles using the following coordinates from bregma: anterior-posterior; +0.2 mm dorsal-ventral; −9.0 mm medial-lateral; 0.0 directly on the mid-sagittal suture, followed by a 28-gauge dummy cannula, inserted to prevent clogging of the guide cannula. The implant was secured to the skull with Caulk Grip dental cement, and the skin was closed over the implant using wound clips. The recovery of rats from the surgical stress was monitored with daily weight, food intake, and movement.
Upon recovery of body weight, usually a week, indwelling catheters were placed in the right internal jugular vein and in the left carotid artery (Muzumdar et al., 2003). The venous catheter was extended to the level of the right atrium, and the arterial catheter was advanced to the level of the aortic arch. Recovery was continued until body weight was within 3% of the pre-operative weight (˜4-6 days). In the rats that received peripheral IGFBP-3, only the vascular catheters were placed.
Studies were performed in unrestrained rats using the insulin clamp technique, in combination with high performance liquid chromatography-purified [3-^3H]glucose and [U-^14C]lactate infusions, as described previously (Liu et al., 1998). Food was removed for ˜5 h before the in vivo protocol. All studies lasted 360 min and included a 120-min equilibration period, a 120-min basal period for assessment of the basal glucose turnover, and a 120-min hyperinsulinemic clamp period. All rats received ICV infusions (bolus followed by continuous ICV infusions of IGF-1, IGFBP-3, IGFBP-3 mutant or aCSF, depending on the group) over the entire 6 hours of the study. At the beginning of the basal period and 120 min before starting the glucose/insulin infusions, a primed-continuous infusion of high performance liquid chromatography-purified [3-^3H]glucose (NEN Life Science Products, Boston, Mass.; 20 μCi of bolus, 0.2 μCi/min) was initiated and maintained throughout the remaining 4 h of the study. In the final 2 hours of the study, the rats were subjected to hyperinsulinemic clamp. The protocol followed during the insulin clamp study was similar to that previously described (Liu et al., 1998). Briefly, a primed-continuous infusion of regular insulin (3 milliunits/kg·min) was administered, and a variable infusion of a 25% glucose solution was started and periodically adjusted to clamp the plasma glucose concentration at 7-8 mM. To prevent endogenous insulin secretion and in order to control for possible effects of ICV infusions on the endocrine pancreas, somatostatin (1.5 μg/kg·min) was also infused in all the groups. [U-^14C]Lactate (5 μCi of bolus/0.25 μCi/min) was infused during the last 10 min of the study.
A bolus of hIGF-1 (0.3 mcg, a gift from Tercica, South San Francisco) was followed by a continuous infusion over 6 hours (total dose of 1 mcg, 0.06 μg/kg/hr).
A bolus of non glycosylated hIGFBP-3 (1.25 μg, generously provided by Celtrix, Mountain View Calif.) was followed by a continuous infusion over 6 hours (total dose of 5.25 mcg, 0.26 μg/kg/hr). […]

PEPCK mRNA in the liver = assay: Hepatic PEPCK mRNA by qRT-PCR at end of clamp after ICV infusion; type: in vivo, rat; conditions: ICV infusion for 6 h, end of clamp (Example 1)
Method: (§1) Total RNA was extracted following Clontech's protocol. First-stranded cDNA was synthesized from 1 μg of total RNA using Superscript III (Gibco, Gaithersburg, Md.). Hepatic glucose-6-phosphatase (Glc-6-Pase) and phosphoenolpyruvate carboxykinase (PEPCK) mRNA abundance were assessed by qRT-PCR as described previously (Buettner et al., 2005). Quantification of these peptides and their copy number was normalized for GAPDH and 18S to correct for loading irregularities. The data presented are those normalized by GAPDH.

[2] = tested on: Glc-6-Pase mRNA in the liver; assay: Hepatic Glc-6-Pase mRNA by qRT-PCR at end of clamp after ICV infusion; type: in vivo, rat
Method: as §1

NIT cells = assay: Survival, STAT-3 and ERK activation in NIT cells; type: cell-based
Text: Z-humanin, […] (SEQ ID NO:19).

[3] = tested on: pAKT and pSTAT-3 in hepatocytes; assay: Western blot of Phospho-STAT3 and Phospho-AKT in primary hepatocytes; type: cell-based, rat
Method: Single-cell suspensions of hepatocytes were obtained from perfusions of Sprague-Dawley rats using the procedure of Berry and Friend (1969) and the perfusion mixture of Leffert et al (1979). Hepatocyte glucose production was estimated after a 24 hr treatment with HN, F6A and saline as described before (Berg et al. 2001). In a separate set of experiment, hepatocytes were lysed, and protein extracted in RIPA lysis buffer at 30, 60 and 360 min post treatment with FIN, F6A and saline. The cell lysates were then subject to western blotting for Phospho-STAT3 (Tyr705), total-STAT3, Phospho-AKT (Ser473), and total-AKT expression (antibodies purchased from Cell Signaling, #9131, #9132, #9271, #9272).

IGF-1 = IGF-1 (Homo sapiens, UniProt P05019); assay: Western ligand blots with 125I-labeled IGF-1; type: binding; conditions: data not shown
Sequence of IGF-1 (P05019 49-118): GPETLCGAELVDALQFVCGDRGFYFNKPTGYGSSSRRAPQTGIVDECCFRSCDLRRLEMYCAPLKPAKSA

BP3KO MEFs = assay: Apoptosis ELISA in IGFBP3 KO mouse embryonic fibroblasts; type: cell-based; conditions: 24 hours, 100 nM of peptides
Method: Mouse embryonic fibroblasts derived from normal and IGFBP3 KO mice were used to test the effects of humanin and its analogues on survival. Apoptosis ELISA was used as an output measure and cells were treated for 24 hours with 100 nM of peptides. […] Thus, the HNGF6A humanin analogue has non-obvious properties that are different from previously described humanin derivatives and has increased potency as a result of its specific molecular alteration leading to reduced IGFBP-3 binding.

[4] = tested on: mice, myocardial ischemia-reperfusion (I/R) injury; assay: Murine myocardial ischemia-reperfusion injury; type: in vivo, mouse
Method: The cardioprotective effects of a single-dose of humanin analog HNG treatment were investigated in a murine model of myocardial ischemia-reperfusion (I/R) injury. Mice were subjected to transient myocardial ischemia for a period of 45 min followed by 24 hour reperfusion. HNG (1, 5, 10, 25, 50 and 200 microgram) or vehicle (saline) was administered intraperitoneally one hour before ischemia.

[5] = tested on: memory impairment caused by AD-related insults; conditions: literature (Tajima et al., 2005); cited from earlier work
Sprague-Dawley rats [6] = assay: Intravenous infusion of humanin or analogs during hyperinsulinemic clamp; type: in vivo, rat; conditions: IV during hyperinsulinemic clamp
Method: To study the acute effects of an infusion of IGFBP-3, two groups of awake, unstressed, chronically catheterized Sprague-Dawley rats (˜300 g) were studied for 300 min (n=3 in each group) under hyperinsulinemic clamp (as previously described). From 120 min the rats received a primed continuous infusion of humanin (0.375 mg/kg/hr) or saline (control) for an additional 2 h. Plasma samples for determination of [3H]glucose and [3H] water specific activities were obtained at 10-min intervals during the basal and clamp periods. Steady state conditions for the plasma glucose concentration and specific activity were achieved within 90 min in all the studies. Plasma samples for determination of HN, insulin and FFA concentrations were collected at 30-min intervals throughout the study. All determinations were also performed on portal vein blood obtained at the end of the experiments. The total amount of blood drawn during the entire study for various assays is ˜3 cc. After separation of plasma (subsequently used for analysis), the red blood cells were reconstituted in saline and infused back into the animal.
To determine if peripheral infusion of the humanin analog colivelin affects insulin action, saline or colivelin (one hundredth of the dose of humanin) was infused intravenously during hyperinsulinemic clamp to two groups of rats that were matched for body weight (˜300 gm), visceral fat (˜3.5 grams), basal glucose (˜135 mg % or 7 mM). Colivelin increased hepatic insulin sensitivity by 33% while peripheral glucose uptake was unchanged (FIG. 14).
A primed-continuous ICV infusion of HN, F6A-HN (total dose of 20 μg), STAT-3 inhibitor (75 pmol) (Buettner et al. 2006), or aCSF was initiated at t=0 and maintained for the remainder of the experiment (FIG. 15A). Pancreatic insulin-clamp studies or euglycemic-hyperinsulinemic clamps were performed in conscious, unrestrained, catheterized mice for last 120 minutes as described previously (Bahar et al. 2006, Muzumdar et al. 2006). In the intra-venous group, HN, F6A, Colivelin, and HNGF6A were infused intravenously and hyperinsulinemic clamps were performed as described previously (Loeb et al. 2005). Estimation of glucose, glucose fluxes, insulin, FFA were done as described previously (Loeb et al. 2005). HN measurements were performed by an in-house, ELISA utilizing affinity purified humanin antibodies that recognize both human and rat humanin and has a limit of detection of 0.1 ng/ml (Hwang, and Cohen personal communication).

[7] = ICV IGF-1 1 μg over 6 h, hyperinsulinemic clamp
[8] = ICV infusion, hyperinsulinemic clamp
[9] = ICV IGFBP-3 or NLS mutant over 6 h
[10] = ICV IGFBP-3 or NLS mutant over 6 h, hyperinsulinemic clamp
[11] = humanin 0.375 mg/kg/hr, colivelin one hundredth of the dose of humanin

expression of G-6Pase lower than aCSF ([2]; ICV IGF-1, end of clamp): 3 fold | expression of G-6Pase in the liver, ratio to GAPDH ([2]; ICV infusion for 6 h, end of clamp (Example 1)): 2.6 ±0.6
Substance: IGF-1: hIGF-1, Insulin-like growth factor-1, a gift from Tercica
Glycogen synthesis, Basal (Sprague-Dawley rats [1]; ICV IGF-1 1 μg over 6 h): 4.87 ± 0.87 | Glycolysis, Basal (Sprague-Dawley rats [1]; ICV IGF-1 1 μg over 6 h): 7.02 ± 0.93 mg/kg/min | HGP, Basal (Sprague-Dawley rats [1]; ICV IGF-1 1 μg over 6 h): 12.4 ± 1.65 mg/kg/min | Glycogen synthesis, Clamp (Sprague-Dawley rats [1]; [7]): 8.09 ± 0.67 | Glycolysis, Clamp (Sprague-Dawley rats [1]; [7]): 13.53 ± 1.17 mg/kg/min | HGP, Clamp (Sprague-Dawley rats [1]; [7]): 2.49 ± 0.54 mg/kg/min | Rd, Clamp (Sprague-Dawley rats [1]; [7]): 21.62 ± 0.74 mg/kg/min | GIR, Clamp (Sprague-Dawley rats [1]; ICV IGF-1 1 μg over 6 h): 19.08 ± 1.55 mg/kg/min | FFA (Sprague-Dawley rats [1]; [7]): 0.23 ± 0.02 mEq/l | IGF-1, human (Sprague-Dawley rats [1]; ICV IGF-1 1 μg over 6 h, peripheral plasma): 0 ng/mL | improvement in hepatic insulin action (lower HGP than controls) (Sprague-Dawley rats [1]; ICV IGF-1, insulin clamp 3 mU/kg/min): 50% | gluconeogenesis (Sprague-Dawley rats [1]; [8]): 0.54 ± 0.2 mg/kg/min | glycogenolysis / hepatic glucose fluxes compared to controls (Sprague-Dawley rats [1]; [8]): marked decrease | insulin induced suppression of FFA compared to controls (Sprague-Dawley rats [1]; [8]): significantly higher | whole body glucose disposal / peripheral glucose uptake (Rd) compared to controls (Sprague-Dawley rats [1]; [8]): tended to augment | infused human peptide in the rat periphery (Sprague-Dawley rats [1]): No hIGF-1 was detected | infused human peptide in the rat periphery (Sprague-Dawley rats [1]; listed as human IGF-1): No human IGF-1, hIGFBP-3 or NLS-IGFBP-3 was identified | PEPCK mRNA in the liver, ratio to GAPDH (PEPCK mRNA in the liver): 3.4 ±0.6

Substance: MAKRGLNCLPHQVSEIDLSVQKRI (Danio rerio) [Z-humanin]
potency in survival, STAT-3 activation and ERK activation relative to humanin (NIT cells): two-fold greater potency than humanin

Substance: MAPRGASCLLLLTGEIDLPVARRA (Humanin analog HNGF6AK21A)
potency in survival, STAT-3 activation and ERK activation relative to humanin (NIT cells): much greater potency than humanin

pAKT or pSTAT-3 in hepatocytes [3]: did not elicit significant changes
Substance: MAPRGASCLLLLTSEIDLPVKRRA [F6A HN, maprgascll lltseidlpv krra]

binding to 125I-labeled IGF-1 (IGF-1): bound equally
Substance: NLS: non-glycosylated NLS mutant of IGFBP-3 with two amino acid substitutions (K228E and R230G)
Glycogen synthesis, Basal (Sprague-Dawley rats [1]; [9]): 5.34 ± 0.38 | Glycolysis, Basal (Sprague-Dawley rats [1]; [9]): 7.40 ± 0.71 mg/kg/min | HGP, Basal (Sprague-Dawley rats [1]; [9]): 13.00 ± 0.72 mg/kg/min | Glycogen synthesis, Clamp (Sprague-Dawley rats [1]; [10]): 6.93 ± 0.37 | Glycolysis, Clamp (Sprague-Dawley rats [1]; [10]): 10.44 ± 0.96 mg/kg/min | HGP, Clamp (Sprague-Dawley rats [1]; [10]): 5.37 ± 0.65 mg/kg/min | Rd, Clamp (Sprague-Dawley rats [1]; [10]): 17.38 ± 1.11 mg/kg/min | GIR, Clamp (Sprague-Dawley rats [1]; [9]): 11.98 ± 1.14 mg/kg/min | FFA (Sprague-Dawley rats [1]; [10]): 0.35 ± 0.05 mEq/l | h-IGFBP-3 (Sprague-Dawley rats [1]; ICV IGFBP-3 or NLS mutant over 6 h, peripheral plasma): 0 ng/mL | glycogenolysis / hepatic glucose fluxes compared to controls (Sprague-Dawley rats [1]; [8]): no changes in glucose fluxes compared to controls | whole body glucose disposal / peripheral glucose uptake (Rd) compared to controls (Sprague-Dawley rats [1]; [8]): did not result in significant changes | infused human peptide in the rat periphery (Sprague-Dawley rats [1]): No human IGF-1, hIGFBP-3 or NLS-IGFBP-3 was identified

Substance: maprgfscll lltgeidlpv krra (MAPRGFSCLLLLTGEIDLPVKRRA; Humanin analog S14G (HNG)) [humanin analogue in which serine at position 14 is replaced by glycine]
potency on survival (Apoptosis ELISA) (BP3KO MEFs): equal potency | myocardial injury ([4]; single dose IP one hour before 45 min ischemia, 24 hour reperfusion): decreased myocardial injury | doses at which reduced myocardial infarct was observed ([4]; single dose IP one hour before ischemia, 1-200 microgram tested): ≥ 5 µg | potency relative to native HN in rescue activity against AD-related insults in vivo [5]: 1000 times

Substance: sallrsipap agasrllllt geidlp (SALLRSIPAPAGASRLLLLTGEIDLP; Humanin analog colivelin)
HGP / hepatic insulin action (Sprague-Dawley rats [6]; HN 0.375 mg/kg/hr, Colivelin 0.00375 mg/kg/hr): significant further enhancement in hepatic insulin action | increase in hepatic insulin sensitivity (Sprague-Dawley rats [6]; [11]): 33% | peripheral glucose uptake (Sprague-Dawley rats [6]; [11]): unchanged
